Experimental data from PubChem BioAssay (NCI).
Several values for one entry are separate records, joined by “and”; a condition that tells them apart may be missing. Identical values can stand only once.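 How tested: cells in 96-well plates exposed to compound for 48 hours at five concentrations. GI50 marks 50% less growth. At the TGI there is no net growth.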

Tests used:
Experiment in all cases: growth of human tumour cells (NCI), 48 h
[1] = tested on: OVCAR-4 ovarian
[2] = tested on: SNB-19 CNS
[3] = tested on: M14 melanoma
[4] = tested on: IGROV1 ovarian
[5] = tested on: NCI-H522 lung
[6] = tested on: K-562 leukemia
[7] = tested on: HOP-92 NSCLC
[8] = tested on: NCI/ADR-RES ovarian
[9] = tested on: A498 renal
[10] = tested on: UACC-257 melanoma

Question: With `O=C(/C(=C/c1ccc([N+](=O)[O-])cc1)SCc1ccc(F)cc1)c1ccc(Cl)cc1` as the molecule, how does the GI50 [1] read?
Answer: 3120 nM

Question: What about the TGI [1] of the same molecule?
Answer: 13 µM

Question: And the GI50 [2]?
Answer: 3280 nM

Question: What about the TGI [2] of the same molecule?
Answer: 11.6 µM

Question: And the GI50 [3]?
Answer: 3910 nM

Question: What about the TGI [3] of the same molecule?
Answer: 20.2 µM

Question: What about the GI50 [4] of the same molecule?
Answer: 9400 nM

Question: What about the TGI [4] of the same molecule?
Answer: 38.7 µM

Question: What about the GI50 [5] of the same molecule?
Answer: 1880 nM

Question: What about the TGI [5] of the same molecule?
Answer: 4.44 µM

Question: What about the GI50 [6] of the same molecule?
Answer: 3050 nM

Question: And the TGI [6]?
Answer: > 100 µM

Question: And the GI50 [7]?
Answer: 19200 nM

Question: What about the TGI [7] of the same molecule?
Answer: > 100 µM

Question: And the GI50 [8]?
Answer: 4570 nM

Question: What about the TGI [8] of the same molecule?
Answer: > 100 µM

Question: And the GI50 [9]?
Answer: > 100000 nM

Question: What about the TGI [9] of the same molecule?
Answer: > 100 µM

Question: What about the GI50 [10] of the same molecule?
Answer: 16000 nM

Question: And the TGI [10]?
Answer: 34.2 µM

Question: For `COc1cc(-c2ncn(/C=C\C(=O)OC(C)C)n2)cc(C(F)(F)F)c1`, which GI50 [1] is on record?
Answer: 68.4 nM and 40.7 nM

Question: And the TGI [1]?
Answer: 4.18 µM and 9.49 µM

Question: And the GI50 [2]?
Answer: 142 nM and 253 nM

Question: What about the TGI [2] of the same molecule?
Answer: 13.5 µM and 14.9 µM

Question: What about the GI50 [3] of the same molecule?
Answer: 228 nM and 350 nM

Question: And the TGI [3]?
Answer: 4.74 µM and 14.5 µM

Question: What about the GI50 [4] of the same molecule?
Answer: 503 nM and 171 nM

Question: And the TGI [4]?
Answer: 15.8 µM and 15.6 µM

Question: What about the GI50 [5] of the same molecule?
Answer: 28.6 nM and 53.5 nM

Question: What about the TGI [5] of the same molecule?
Answer: 0.734 µM and 0.597 µM

Question: And the GI50 [6]?
Answer: 51 nM and 60.8 nM

Question: And the TGI [6]?
Answer: 10.2 µM and 16.2 µM

Question: And the GI50 [7]?
Answer: 303 nM and 103 nM

Question: What about the TGI [7] of the same molecule?
Answer: 4.96 µM and 5.68 µM

Question: What about the GI50 [8] of the same molecule?
Answer: 65.8 nM and 94.4 nM

Question: What about the TGI [8] of the same molecule?
Answer: 11.5 µM and 12.7 µM

Question: And the GI50 [9]?
Answer: 36.4 nM and < 14.4 nM

Question: What about the TGI [9] of the same molecule?
Answer: 0.673 µM and 0.0916 µM

Question: And the GI50 [10]?
Answer: 142 nM and 136 nM

Question: And the TGI [10]?
Answer: 11.8 µM and 14.4 µM

Question: With `COc1ccc(OC)c(-c2cc(=O)c3c(OC)c(OC)c(OC)c(OC)c3o2)c1` as the molecule, how does the TGI [1] read?
Answer: 88.7 µM

Question: And the TGI [2]?
Answer: > 100 µM

Question: And the TGI [3]?
Answer: > 100 µM

Question: What about the TGI [4] of the same molecule?
Answer: > 100 µM

Question: What about the TGI [5] of the same molecule?
Answer: 46.4 µM

Question: What about the TGI [6] of the same molecule?
Answer: > 100 µM

Question: And the TGI [7]?
Answer: 57.7 µM

Question: What about the TGI [8] of the same molecule?
Answer: 82.8 µM

Question: What about the TGI [9] of the same molecule?
Answer: > 100 µM

Question: What about the TGI [10] of the same molecule?
Answer: > 100 µM

Question: Which GI50 [1] does the source give for `CCc1cc2c(cc1N1CCC(N3CCOCC3)CC1)C(C)(C)c1[nH]c3cc(C#N)ccc3c1C2=O` here?
Answer: 648 nM and 1350 nM and 1630 nM

Question: What about the TGI [1] of the same molecule?
Answer: 2.26 µM and 2.86 µM and 3.59 µM

Question: What about the GI50 [2] of the same molecule?
Answer: 1660 nM and 1790 nM and 3170 nM

Question: And the TGI [2]?
Answer: 4.02 µM and 4.44 µM and > 10 µM

Question: What about the GI50 [3] of the same molecule?
Answer: 1620 nM and 2050 nM and 2170 nM

Question: What about the TGI [3] of the same molecule?
Answer: 8.88 µM and 11.9 µM and > 10 µM

Question: And the GI50 [4]?
Answer: 2480 nM and 1450 nM and 772 nM

Question: And the TGI [4]?
Answer: 16.7 µM and 5.16 µM and 4 µM

Question: What about the GI50 [5] of the same molecule?
Answer: 1170 nM and 1690 nM and 1480 nM

Question: And the TGI [5]?
Answer: 3.81 µM and 4.88 µM and 5.85 µM

Question: What about the GI50 [6] of the same molecule?
Answer: 3760 nM and 2120 nM and 1940 nM

Question: What about the TGI [6] of the same molecule?
Answer: > 41.9 µM and 13.9 µM and > 10 µM

Question: And the GI50 [7]?
Answer: 386 nM and 179 nM and 576 nM

Question: What about the TGI [7] of the same molecule?
Answer: 3.54 µM and 1.23 µM and 4.84 µM

Question: And the GI50 [8]?
Answer: 1010 nM and 1390 nM and 1590 nM

Question: And the TGI [8]?
Answer: 3.81 µM and 6.34 µM and 6.47 µM

Question: What about the GI50 [9] of the same molecule?
Answer: 817 nM and 867 nM and 1590 nM

Question: What about the TGI [9] of the same molecule?
Answer: 4.02 µM and 4.95 µM and > 10 µM

Question: And the GI50 [10]?
Answer: 2300 nM and 3200 nM

Question: And the TGI [10]?
Answer: 21.1 µM and 25.9 µM and > 10 µM

Question: For `COc1ccc(-c2c(-c3cc(OC)c(OC)c(OC)c3)noc2N)cc1`, which GI50 [1] is on record?
Answer: 24.9 nM

Question: What about the TGI [1] of the same molecule?
Answer: 57.5 µM

Question: What about the GI50 [2] of the same molecule?
Answer: 34.2 nM

Question: What about the TGI [2] of the same molecule?
Answer: > 100 µM

Question: What about the GI50 [3] of the same molecule?
Answer: < 10 nM

Question: What about the TGI [3] of the same molecule?
Answer: > 100 µM

Question: What about the GI50 [4] of the same molecule?
Answer: 20.2 nM

Question: What about the TGI [4] of the same molecule?
Answer: 40.1 µM

Question: And the GI50 [5]?
Answer: < 10 nM

Question: And the GI50 [6]?
Answer: < 10 nM

Question: What about the TGI [6] of the same molecule?
Answer: > 100 µM

Question: And the GI50 [7]?
Answer: < 10 nM

Question: What about the TGI [7] of the same molecule?
Answer: > 100 µM

Question: What about the GI50 [8] of the same molecule?
Answer: < 10 nM

Question: And the TGI [8]?
Answer: 0.0226 µM

Question: What about the GI50 [9] of the same molecule?
Answer: < 10 nM

Question: And the TGI [9]?
Answer: 4.37 µM

Question: What about the GI50 [10] of the same molecule?
Answer: < 10 nM

Question: What about the TGI [10] of the same molecule?
Answer: > 100 µM

Question: How did the GI50 [1] turn out when `O=C(Nc1nc2ccc(F)cc2s1)c1cccnc1Nc1ccc(Cl)cc1` was run?
Answer: 2990 nM

Question: And the TGI [1]?
Answer: > 100 µM

Question: And the GI50 [2]?
Answer: 3830 nM

Question: And the TGI [2]?
Answer: > 100 µM

Question: And the GI50 [3]?
Answer: 2940 nM

Question: What about the TGI [3] of the same molecule?
Answer: > 100 µM

Question: What about the GI50 [4] of the same molecule?
Answer: 2600 nM

Question: And the TGI [4]?
Answer: > 34.1 µM

Question: And the GI50 [5]?
Answer: 2170 nM

Question: What about the TGI [5] of the same molecule?
Answer: > 24.2 µM

Question: And the GI50 [6]?
Answer: 961 nM

Question: What about the TGI [6] of the same molecule?
Answer: > 100 µM

Question: And the GI50 [7]?
Answer: 575 nM

Question: What about the TGI [7] of the same molecule?
Answer: 3.34 µM

Question: And the GI50 [8]?
Answer: 2360 nM

Question: And the TGI [8]?
Answer: > 28.1 µM

Question: What about the GI50 [9] of the same molecule?
Answer: 1800 nM

Question: And the TGI [9]?
Answer: 5.46 µM

Question: What about the GI50 [10] of the same molecule?
Answer: 677 nM

Question: `COC(=O)[C@H](Cc1ccc(O)cc1)NC(=O)[C@@H](OC)[C@@H]1Cc2cc3cc(OC4CC(OC5CC(O)C(O)C(C)O5)C(O)C(C)O4)c(C)c(O)c3c(O)c2C(=O)[C@H]1OC1CC(OC2CC(OC3CC(C)(O)C(O)C(C)O3)C(O)C(C)O2)C(O)C(C)O1` (stereo partly drawn) was tested. Which GI50 [1] did it give?
Answer: 178 nM

Question: And the TGI [1]?
Answer: > 25 µM

Question: And the GI50 [2]?
Answer: 71.3 nM

Question: What about the TGI [2] of the same molecule?
Answer: > 25 µM

Question: And the GI50 [3]?
Answer: 204 nM

Question: And the TGI [3]?
Answer: 6.43 µM

Question: What about the GI50 [4] of the same molecule?
Answer: 35.7 nM

Question: What about the TGI [4] of the same molecule?
Answer: > 25 µM

Question: And the GI50 [5]?
Answer: 58.4 nM

Question: What about the TGI [5] of the same molecule?
Answer: > 25 µM

Question: And the GI50 [6]?
Answer: 116 nM

Question: And the TGI [6]?
Answer: > 25 µM

Question: What about the GI50 [7] of the same molecule?
Answer: 38.7 nM

Question: And the TGI [7]?
Answer: 7.15 µM

Question: And the GI50 [8]?
Answer: > 25000 nM

Question: What about the TGI [8] of the same molecule?
Answer: > 25 µM

Question: What about the GI50 [9] of the same molecule?
Answer: 89.2 nM

Question: What about the TGI [9] of the same molecule?
Answer: 0.451 µM

Question: And the GI50 [10]?
Answer: 124 nM

Question: What about the TGI [10] of the same molecule?
Answer: 4.39 µM

Question: What does the source list for `CCCCCCc1nc2nc(Cl)c(Cl)nc2[nH]1`?
Answer: GI50 [1]: 6330 nM; TGI [1]: > 100 µM; GI50 [2]: 6200 nM; TGI [2]: > 100 µM; GI50 [3]: > 100000 nM; TGI [3]: > 100 µM; GI50 [4]: 18900 nM; TGI [4]: > 100 µM; GI50 [5]: 2730 nM; TGI [5]: 26.8 µM; GI50 [6]: 5290 nM; TGI [6]: > 100 µM; GI50 [7]: 1990 nM; TGI [7]: 7.4 µM; GI50 [8]: 6920 nM; TGI [8]: > 100 µM; GI50 [9]: 3810 nM; TGI [9]: > 100 µM; GI50 [10]: 3020 nM; TGI [10]: > 100 µM

Question: `CN(C)CCCNC(=O)c1cncnc1Nc1ccc(OCc2cccc(F)c2)c(Cl)c1` was tested. Which GI50 [1] did it give?
Answer: 1830 nM

Question: What about the TGI [1] of the same molecule?
Answer: 4.36 µM

Question: What about the GI50 [2] of the same molecule?
Answer: 1720 nM

Question: What about the TGI [2] of the same molecule?
Answer: 3.11 µM

Question: And the GI50 [3]?
Answer: 1710 nM

Question: And the TGI [3]?
Answer: 3.38 µM

Question: What about the GI50 [4] of the same molecule?
Answer: 1780 nM

Question: What about the TGI [4] of the same molecule?
Answer: 3.33 µM

Question: What about the GI50 [5] of the same molecule?
Answer: 2000 nM

Question: What about the TGI [5] of the same molecule?
Answer: 3.86 µM

Question: And the GI50 [6]?
Answer: 1740 nM

Question: What about the TGI [6] of the same molecule?
Answer: 3.73 µM

Question: And the GI50 [7]?
Answer: 1330 nM

Question: What about the TGI [7] of the same molecule?
Answer: 3.16 µM

Question: And the GI50 [8]?
Answer: 1890 nM

Question: And the TGI [8]?
Answer: 3.77 µM

Question: And the GI50 [9]?
Answer: 1560 nM

Question: And the TGI [9]?
Answer: 2.93 µM

Question: What about the GI50 [10] of the same molecule?
Answer: 1890 nM

Question: What about the TGI [10] of the same molecule?
Answer: 3.83 µM
